Tests used:
Calpain I = target: T1, Calpain I (Homo sapiens, UniProt P07384); test: Inhibition and rate of inactivation of calpain I (Succ-Leu-Tyr-MNA hydrolysis); assay type: biochemical; conditions: mean of three or more independent analyses, corrected for substrate, k2 = kapp(1+[S]/Km), read-out: k2 (second order rate constant of inactivation), A = Calpain I
T1 construct: Calpain I was purified from human red blood cells; from tissue; host or cells: human red blood cells (packed, outdated)
T1 sequence (P07384 1-714): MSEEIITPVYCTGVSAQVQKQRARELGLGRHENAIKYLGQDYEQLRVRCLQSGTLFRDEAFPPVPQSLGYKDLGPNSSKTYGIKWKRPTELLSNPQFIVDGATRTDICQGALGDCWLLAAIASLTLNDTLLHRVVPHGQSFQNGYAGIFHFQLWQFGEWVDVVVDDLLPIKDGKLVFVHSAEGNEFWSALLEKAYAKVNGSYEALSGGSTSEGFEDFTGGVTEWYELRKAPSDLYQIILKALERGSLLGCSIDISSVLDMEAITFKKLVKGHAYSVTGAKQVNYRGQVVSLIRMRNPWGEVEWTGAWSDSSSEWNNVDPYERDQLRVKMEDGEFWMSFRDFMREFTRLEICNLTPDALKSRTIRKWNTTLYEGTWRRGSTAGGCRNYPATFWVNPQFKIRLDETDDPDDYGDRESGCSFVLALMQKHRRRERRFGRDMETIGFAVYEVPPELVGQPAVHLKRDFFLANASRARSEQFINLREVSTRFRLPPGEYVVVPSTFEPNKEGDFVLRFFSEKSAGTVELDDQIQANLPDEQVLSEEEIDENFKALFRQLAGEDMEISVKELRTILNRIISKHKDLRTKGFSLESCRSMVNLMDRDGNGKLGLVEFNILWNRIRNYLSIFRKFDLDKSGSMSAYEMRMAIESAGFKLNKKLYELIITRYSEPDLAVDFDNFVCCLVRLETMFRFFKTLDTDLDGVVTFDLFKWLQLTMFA
T1 sequence (P04632 1-268 partner): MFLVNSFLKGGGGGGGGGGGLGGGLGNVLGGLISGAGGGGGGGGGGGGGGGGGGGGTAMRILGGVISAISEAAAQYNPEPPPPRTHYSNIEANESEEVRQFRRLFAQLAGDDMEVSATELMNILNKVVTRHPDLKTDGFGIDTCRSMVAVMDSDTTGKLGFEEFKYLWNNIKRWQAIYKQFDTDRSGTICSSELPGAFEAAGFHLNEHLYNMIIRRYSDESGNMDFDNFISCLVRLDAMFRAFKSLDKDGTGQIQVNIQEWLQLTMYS
Procedure: To evaluate inhibitory activity of our compounds, stocks (40 times concentrated) of each compound to be tested were prepared in 100% anhydrous dimethyl sulfoxide (DMSO) and 5 μl of each inhibitor preparation was aliquoted into each of three wells of a 96 well plate. Calpain I was purified from human red blood cells using a modification of the method described by Lee, W. J. et al. (Biochem. Internatl. (1990)22(1): 163-171). Briefly, 3 units of packed outdated red blood cells were washed 3× by repeated centrifugation at 500 rpm for 10 minutes through 900 mls of 0.9% NaCl. Cells were lysed in 20 mM Tris/1 mM EDTA/1 mM EGTA/5 mM mercaptoethanol (Buffer A) and centrifuged for 1 hour at 12,000 rpm in a GSA rotor using a Sorval centrifuge. The supernatant was collected and applied to a DEAE-sepharose FF column equilibrated in Buffer A+25 mM NaCl. After washing the column in Buffer A+25 mM NaCl, the bound protein was eluted at 117 ml/hr with a 25 mM to 150 mM NaCl linear gradient in Buffer A collecting 200, 10 mL fractions. Two μl of every fifth fraction was applied to nitrocelluose using a dot blot apparatus and calpain containing fractions identified by Western analysis. For detection of calpain, nitrocellulose sheets were first blocked in 5% Blotto (5% Carnation instant milk/10 mM Tris/[…]150 mM NaCl) for 30 minutes, followed by incubation for 1 hour in antibody directed against Calpain I (rabbit anti-human calpain I polyclonal sera, 1:1000 dilution in 5% Blotto). After three 5 minutes washes in 10 mM Tris/150 mM NaCl/0.05% Tween 20 the nitrocellulose was incubated for 1 hour in secondary alkaline phosphatase conjugated antibody (Biorad Cat#170-6518 1:2000 in 5% Blotto). After three 5 minutes washes in 10 mM Tris/150 mM NaCl/0.05% Tween 20 and 1 wash in 10 mM Tris/150 mM NaCl the nitrocellulose was incubated for up to 2 hours in a colorimetric substrate solution (Biorad Alkaline Phosphatase Substrate conjugate kit, cat#170-6432). The reaction was stopped by washing in water. After fractions containing calpain, and those in between, were pooled, solid ammonium sulfate was added to achieve a 30% solution and the mixture stirred for 1 hour at 4° C. Following collection of the precipitate by centrifugation for 1 hour at 4° C. at 12K rpm in a GSA rotor, the supernatant was collected and brought to 45% in ammonium sulfate. After stirring for 1 hour at 4° C., centrifugation was repeated. The supernatant was discarded and the precipitate resuspended in approximately 7 mls and dialyzed overnight at 4° C. against Buffer A+50 mM NaCl. The sample was then applied to a S300 gel filtration column preequilibrated in Buffer A+50 mM NaCl, washed and eluted at a flow rate of 20 ml/hr, collecting 200, 4 ml fractions. The peak of calpain was determined by assaying aliquots of every fifth fraction for enzyme activity monitored by the hydrolysis of a fluorogenic dipeptide substrate as described below. The peak fractions were pooled and the enzyme preparation used to test compounds for inhibitory activity. As an alternate to enzyme isolated from tissue sources, recombinant human calpain I has also been used to monitor compounds for inhibitory activity.
The foregoing enzyme preparation was diluted into assay buffer (i.e., 50 mM Tris, 50 mM NaCl, 1 mM EDTA, 1 mM EGTA, and 5 mM β-mercaptoethanol, pH 7.5 including 0.2 mM Succ-Leu-Tyr-MNA) and 175 μl aliquoted into the same wells containing the independent inhibitor stocks as well as to positive control wells containing 5 μl DMSO, but no compound. To start the reaction, 20 μl of 50 mM CaCl2 in assay buffer was added to all wells of the plate, excepting three, which were used as background signal baseline controls. Substrate hydrolysis was monitored every 5 minutes for a total of 30 minutes using Flouroskan II (ex=340 nm; em=430 nm). Substrate hydrolysis in the absence of inhibitor was linear for up to 15 minutes. […]

Cathepsin B = target: T2, Cathepsin B (Homo sapiens, UniProt P07858); test: Inhibition and rate of inactivation of cathepsin B (Cbz-Phe-Arg-AMC hydrolysis); assay type: biochemical; conditions: pH 6.0, 0.1 mM substrate, read-out: k2 (second order rate constant of inactivation), C = Cathepsin B
T2 construct: purchased Calbiochem 219364
Procedure: Additionally, the order of reagents added to the plate was altered because both enzymes are constitutively active. Following inhibitor addition to the plates appropriate 2× concentrated stock dilutions of the enzyme preparations were made in assay buffer and 100 ul added to each well. The assay was initiated by addition of 100 ul of 2× concentrated stock dilution of substrate in assay buffer. Substrate hydrolysis was monitored using a Fluroskan II (ex=390 nm; em=460 nm).
Inhibition of enzyme activity was calculated as the percent decrease in the rate of substrate hydrolysis in the presence of inhibitor (.upsilon.i) relative to the rate in its absence (.upsilon.o). Comparison between .upsilon.o and .upsilon.i was made within the linear range for substrate hydrolysis. For screening, compounds were tested at 10 μM. Compounds having ≥50% inhibition at 10 μM were considered active. Apparent second order rate constants were determined from analysis of reaction progress curves under pseudo-first order conditions. Each determination represents the mean of three or more independent single cuvette analyses continually monitored via a Perkin-Elmer LS50B spectrofluorimeter. The rate of inhibition of hydrolysis was obtained by fitting the curve to the exponential equation (1):
y=Ae^-k.spsb.obs·t +B (1)
where y (Pt) is the product formed at time t. A and B are constants. A, the amplitude of the reaction, is given by [Po -P.varies. ] and B (=P.varies.) is the maximal product formed when the reaction is […]. This was corrected for the presence of equation (2): […]

[1] = tested on: calpain I in Molt-4 cells (α-spectrin breakdown products); test: Inhibition of calpain activation in intact Molt-4 cells (calpain-generated spectrin breakdown products); assay type: cell-based; conditions: Homo sapiens, calcium and ionophore (ionomycin), read-out: % Inhibition of BDPs (10 μM)
α-chymotrypsin = target: T3, α-chymotrypsin (Bos taurus, UniProt P00766); test: Inhibition of the serine protease α-chymotrypsin (Succ-Ala-Ala-Pro-Phe-AMC hydrolysis); assay type: biochemical; conditions: pH 7.5, 0.03 mM substrate
T3 construct: purchased Sigma Chem. Co. C-3142
Procedure: Additionally,because α-chymotrypsin is not a calcium sensitive enzyme and is constituitively active, following addition of inhibitor stocks to the 96 well plates, 100 ul of a 2 fold concentrated stock of enzyme in dilution buffer was first added and the reaction started by addition of 100 ul of a 2 fold concentrated stock of substrate in assay buffer. Substrate hydrolysis was monitored every 5 minutes up to 30 minutes using a Fluoroskan II ([…]).

SMILES | kinact/KI (Calpain I) | kinact/KI (Cathepsin B) | inhibition at 10 µM (α-chymotrypsin) | inhibition at 10 µM [1]
CC(C)C[C@H](NC(=O)[C@H](CC(C)C)NC(=O)OCc1ccccc1)C(=O)COn1nnc2ccccc21 [Example 4, 1-[N-[N-Benzyloxycarbonyl-L-leucyl]-3S-5-methyl-3-amino-2-oxohexyloxy]benzotriazole] | 175000 M⁻¹ s⁻¹ | 19000 M⁻¹ s⁻¹ | – | 57%
CC(C)C[C@H](NC(=O)OCc1ccccc1)C(=O)N[C@@H](Cc1ccccc1)C(=O)COn1nnc2ccc(C(F)(F)F)cc21 [Example 7, 1-[N-[N-Benzyloxycarbonyl-L-leucyl]-3S-4-phenyl-3-amino-2-oxobutyloxy]-6'-trifluoromethylbenzotriazole] | 160000 M⁻¹ s⁻¹ | 18000 M⁻¹ s⁻¹ | 99% | –
COc1ccc2nnn(OCC(=O)[C@H](Cc3ccccc3)NC(=O)[C@H](CC(C)C)NC(=O)OCc3ccccc3)c2c1 [Example 9, 1-[N-[N-Benzyloxycarbonyl-L-leucyl]-3S-4-phenyl-3-amino-2-oxobutyloxy]-6'-methoxybenzotriazole] | 125000 M⁻¹ s⁻¹ | 52000 M⁻¹ s⁻¹ | 83% | –
Cc1cc2nnn(OCC(=O)[C@H](Cc3ccccc3)NC(=O)[C@H](CC(C)C)NC(=O)OCc3ccccc3)c2cc1Cl [Example 11, 1-[N-[N-Benzyloxycarbonyl-L-leucyl]-3S-4-phenyl-3-amino-2-oxobutyloxy]-6'-chloro-5'-methylbenzotriazole] | 98000 M⁻¹ s⁻¹ | 28000 M⁻¹ s⁻¹ | 100% | –
CC(C)C[C@H](NC(=O)OCc1ccccc1)C(=O)N[C@@H](Cc1ccccc1)C(=O)COn1nnc2ncccc21 [Example 19, 1-[N-[N-Benzyloxycarbonyl-L-leucyl]-3S-4-phenyl-3-amino-2-oxybutyloxy]-(1H)-triazolo[4,5-b]pyridine] | 57000 M⁻¹ s⁻¹ | – | – | 54%
CC(C)CC(CC(=O)C1c2ccccc2Oc2ccccc21)C(=O)N[C@@H](Cc1ccccc1)C(=O)COn1nnc2ccccc21 (stereo partly drawn) [Example 39, 1-[N-[2-(2-Methylpropyl)-1,4-dioxo-4-(xanthen-9-yl)butyl]-3S-3-amino-2-oxo-4-phenylbutyloxy]benzotriazole] | 46000 M⁻¹ s⁻¹ | 55000 M⁻¹ s⁻¹ | 100% | –
CC(C)CC(CC(=O)C1c2ccccc2Oc2ccccc21)C(=O)N[C@@H](CC(C)C)C(=O)COn1nnc2ccccc21 (stereo partly shown) [Example 40] | 2700 M⁻¹ s⁻¹ | 48000 M⁻¹ s⁻¹ | 100% | –

More lines, main results first:

kinact/KI (Calpain I) | kinact/KI (Cathepsin B) | inhibition at 10 µM (α-chymotrypsin) | SMILES | inhibition at 10 µM [1]
101000 M⁻¹ s⁻¹ | – | – | CC(C)C[C@H](NC(=O)OCc1ccccc1)C(=O)N[C@@H](Cc1ccccc1)C(=O)COn1nnc2ccc(Cl)cc21 [Example 8, 1-[N-[N-Benzyloxycarbonyl-L-leucyl]-3S-4-phenyl-3-amino-2-oxybutyloxy]-6'-chlorobenzotriazole] | 57%
50000 M⁻¹ s⁻¹ | – | 89% | CC(C)C[C@H](NC(=O)OCc1ccccc1)C(=O)N[C@@H](Cc1ccccc1)C(=O)COn1nnc2ccc(F)cc21 [Example 10, 1-[N-[N-Benzyloxycarbonyl-L-leucyl]-3S-4-phenyl-3-amino-2-oxobutyloxy]-6'-fluorobenzotriazole] | –
46000 M⁻¹ s⁻¹ | – | 94% | Cc1cccc2c1nnn2OCC(=O)[C@H](Cc1ccccc1)NC(=O)[C@H](CC(C)C)NC(=O)OCc1ccccc1 [Example 12, 1-[N-[N-Benzyloxycarbonyl-L-leucyl]-3S-4-phenyl-3-amino-2-oxobutyloxy]-4'-methylbenzotriazole] | –
93000 M⁻¹ s⁻¹ | – | – | CC(C)C[C@H](NC(=O)OCc1ccccc1)C(=O)N[C@@H](Cc1ccccc1)C(=O)COn1nnc2c(F)c(F)c(F)c(F)c21 [Example 16, 1-[N-[N-Benzyloxycarbonyl-L-leucyl]-3S-4-phenyl-3-amino-2-oxybutyloxy]-4',5',6',7'-tetrafluorobenzotriazole] | 64%
67000 M⁻¹ s⁻¹ | 300000 M⁻¹ s⁻¹ | – | CC(C)C[C@H](NC(=O)OCc1ccccc1)C(=O)N[C@@H](Cc1ccccc1)C(=O)COn1nnc2c(F)c(F)ccc21 [Example 25, 1-[N-[N-Benzyloxycarbonyl-L-leucyl]-3S-4-phenyl-3-amino-2-oxybutyloxy]-4',5'-difluorobenzotriazole] | 52%
